Patent publication US20260124214A1, “HETEROCYCLIC COMPOUNDS FOR USE IN THE TREATMENT OF CANCER” (ARTIOS PHARMA LIMITED, priority 2021, published 2026)
Structures can show the parent of a compound that is named as a salt.

The molecules below were run against T1, Human Polθ polymerase domain (aa1820-2590) (Homo sapiens, UniProt O75417) (assay: Polθ Polymerase Domain WT KI Assay (PicoGreen)). Details: 100 nM DNA substrate, 0.156 nM Polθ, initial rates vs inhibitor concentration.
T1 construct: Human Polθ polymerase domain (aa1820-2590) was expressed in E. Coli; made in house; host or cells: E. coli
T1 sequence (O75417 1820-2590): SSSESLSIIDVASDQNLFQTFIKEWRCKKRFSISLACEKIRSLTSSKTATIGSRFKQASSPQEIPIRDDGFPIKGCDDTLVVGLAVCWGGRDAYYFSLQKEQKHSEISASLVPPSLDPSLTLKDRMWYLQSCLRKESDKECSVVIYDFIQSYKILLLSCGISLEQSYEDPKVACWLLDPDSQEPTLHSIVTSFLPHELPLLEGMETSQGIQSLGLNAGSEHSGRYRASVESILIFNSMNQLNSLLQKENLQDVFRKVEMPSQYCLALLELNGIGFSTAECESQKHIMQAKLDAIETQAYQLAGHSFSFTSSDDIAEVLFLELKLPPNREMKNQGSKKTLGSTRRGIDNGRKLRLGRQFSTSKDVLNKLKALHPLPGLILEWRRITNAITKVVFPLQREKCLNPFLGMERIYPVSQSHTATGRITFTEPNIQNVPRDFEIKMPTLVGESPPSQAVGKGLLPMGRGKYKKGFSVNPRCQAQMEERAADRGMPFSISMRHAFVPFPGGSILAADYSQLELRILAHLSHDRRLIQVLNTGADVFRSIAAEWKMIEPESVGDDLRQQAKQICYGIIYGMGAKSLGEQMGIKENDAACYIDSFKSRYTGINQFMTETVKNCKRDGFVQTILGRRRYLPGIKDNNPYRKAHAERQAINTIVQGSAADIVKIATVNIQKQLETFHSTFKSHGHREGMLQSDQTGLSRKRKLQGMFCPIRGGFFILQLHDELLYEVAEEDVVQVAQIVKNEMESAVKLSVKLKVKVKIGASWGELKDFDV
Format: biochemical
In short: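 E. coli-expressed human Polθ polymerase domain (aa1820-2590) on annealed DNA II Short/Long primer-template (1.2:1), in 25 mM Tris pH 7.5, NaCl, 5% glycerol, 0.01% Triton X-100, 0.1 mg/ml BSA, 1 mM DTT, 1% DMSO. EDTA-quenched timepoints to 180 min, PicoGreen fluorescence. Initial rates vs inhibitor concentration fitted four-parameter for KI.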

SMILES | Ki [nM]
Cc1cc(C(F)(F)F)cc(N2C(=O)C[C@@H]3CN(Cc4cccc(C5CN(C)C5)c4)c4c(F)cccc4N(C)C(=O)[C@H]32)n1 [Example 124, (3aR,11aS)-6-Fluoro-10-methyl-1-(6-methyl-4-(trifluoromethyl)pyridin-2-yl)-5-(3-(1-methylazetidin-3-yl)benzyl)-1,3a,4,5,10,11a-hexahydro-2H-benzo[b]pyrrolo[2,3-f][1,4]diazocine-2,11(3H)-dione] | 4.26
Cc1cc(C(F)(F)F)cc(N2C(=O)C[C@@H]3CN(CCCN(C)C)c4c(Cl)cccc4N(C)C(=O)[C@H]32)n1 [Example 135, (3aR,11aS)-6-Chloro-5-(3-(dimethylamino)propyl)-10-methyl-1-(6-methyl-4-(trifluoromethyl)pyridin-2-yl)-1,3a,4,5,10,11a-hexahydro-2H-benzo[b]pyrrolo[2,3-f][1,4]diazocine-2,11(3H)-dione] | 3.49
Cc1cc(C(F)(F)F)cc(N2C(=O)C[C@@H]3CN(c4cccnc4)c4c(F)cccc4N(C)C(=O)[C@H]32)n1 [Example 138, (3aR,11aS)-6-Fluoro-10-methyl-1-(6-methyl-4-(trifluoromethyl)pyridin-2-yl)-5-(pyridin-3-yl)-1,3a,4,5,10,11a-hexahydro-2H-benzo[b]pyrrolo[2,3-f][1,4]diazocine-2,11(3H)-dione] | 645
Cc1cc(C(F)(F)F)cc(N2C(=O)C[C@@H]3CN(c4ccccc4)c4c(F)cccc4N(C)C(=O)[C@H]32)n1 [Example 139, (3aR,11aS)-6-Fluoro-10-methyl-1-(6-methyl-4-(trifluoromethyl)pyridin-2-yl)-5-phenyl-1,3a,4,5,10,11a-hexahydro-2H-benzo[b]pyrrolo[2,3-f][1,4]diazocine-2,11(3H)-dione] | 56.8
COc1cccc(N2C[C@H]3CC(=O)N(c4cc(C(F)(F)F)cc(C)n4)[C@@H]3C(=O)N(C)c3cccc(F)c32)n1 [Example 141, (3aR,11aS)-6-Fluoro-5-(6-methoxypyridin-2-yl)-10-methyl-1-(6-methyl-4-(trifluoromethyl)pyridin-2-yl)-1,3a,4,5,10,11a-hexahydro-2H-benzo[b]pyrrolo[2,3-f][1,4]diazocine-2,11(3H)-dione] | 86.3
COc1cc(N2C[C@H]3CC(=O)N(c4cc(C(F)(F)F)cc(C)n4)[C@@H]3C(=O)N(C)c3cccc(F)c32)ccn1 [Example 142, (3aR,11aS)-6-Fluoro-5-(2-methoxypyridin-4-yl)-10-methyl-1-(6-methyl-4-(trifluoromethyl)pyridin-2-yl)-1,3a,4,5,10,11a-hexahydro-2H-benzo[b]pyrrolo[2,3-f][1,4]diazocine-2,11(3H)-dione] | 461
Cc1cc(C(F)(F)F)cc(N2C(=O)C[C@@H]3CN(c4ccc5ccn(C)c5n4)c4c(F)cccc4N(C)C(=O)[C@H]32)n1 [Example 143, (3aR,11aS)-6-Fluoro-10-methyl-5-(1-methyl-1H-pyrrolo[2,3-b]pyridin-6-yl)-1-(6-methyl-4-(trifluoromethyl)pyridin-2-yl)-1,3a,4,5,10,11a-hexahydro-2H-benzo[b]pyrrolo[2,3-f][1,4]diazocine-2,11(3H)-dione] | 97
Cc1cc(C(F)(F)F)cc(N2C(=O)C[C@@H]3CN(c4ccccn4)c4c(Cl)cccc4N(C)C(=O)[C@H]32)n1 [Example 145, (3aR,11aS)-6-Chloro-10-methyl-1-(6-methyl-4-(trifluoromethyl)pyridin-2-yl)-5-(pyridin-2-yl)-1,3a,4,5,10,11a-hexahydro-2H-benzo[b]pyrrolo[2,3-f][1,4]diazocine-2,11(3H)-dione] | 30.5

Now from value to molecule:

Ki [nM] | SMILES
1.94 | Cc1cc(C(F)(F)F)cc(N2C(=O)C[C@@H]3CN(Cc4ccc5c(c4)CCN(C)C5)c4c(F)cccc4N(C)C(=O)[C@H]32)n1 [Example 122, (3aR,11aS)-6-Fluoro-10-methyl-5-((2-methyl-1,2,3,4-tetrahydroisoquinolin-6-yl)methyl)-1-(6-methyl-4-(trifluoromethyl)pyridin-2-yl)-1,3a,4,5,10,11a-hexahydro-2H-benzo[b]pyrrolo[2,3-f][1,4]diazocine-2,11(3H)-dione]
2.2 | Cc1cc(C(F)(F)F)cc(N2C(=O)C[C@@H]3CN(Cc4ccc5c(c4)CN(C)C5)c4c(F)cccc4N(C)C(=O)[C@H]32)n1 [Example 123, (3aR,11aS)-6-Fluoro-10-methyl-1-(6-methyl-4-(trifluoromethyl)pyridin-2-yl)-5-((2-methylisoindolin-5-yl)methyl)-1,3a,4,5,10,11a-hexahydro-2H-benzo[b]pyrrolo[2,3-f][1,4]diazocine-2,11(3H)-dione hydrochloride]
7.21 | Cc1cc(C(F)(F)F)cc(N2C(=O)C[C@@H]3CN(CCCO)c4c(F)cccc4N(C)C(=O)[C@H]32)n1 [Example 127, (3aR,11aS)-6-Fluoro-5-(3-hydroxypropyl)-10-methyl-1-(6-methyl-4-(trifluoromethyl)pyridin-2-yl)-1,3a,4,5,10,11a-hexahydro-2H-benzo[b]pyrrolo[2,3-f][1,4]diazocine-2,11(3H)-dione]
1.39 | Cc1cc(C(F)(F)F)cc(N2C(=O)C[C@@H]3CN(CCCN(C)C)c4c(C)cccc4N(C)C(=O)[C@H]32)n1 [Example 128, (3aR,11aS)-5-(3-(Dimethylamino)propyl)-6,10-dimethyl-1-(6-methyl-4-(trifluoromethyl)pyridin-2-yl)-1,3a,4,5,10,11a-hexahydro-2H-benzo[b]pyrrolo[2,3-f][1,4]diazocine-2,11(3H)-dione]
1.23 | Cc1cc(C(F)(F)F)cc(N2C(=O)C[C@@H]3CN(CCCN4CCN(C)CC4)c4c(Cl)cccc4N(C)C(=O)[C@H]32)n1 [Example 129, (3aR,11aS)-6-Chloro-10-methyl-1-(6-methyl-4-(trifluoromethyl)pyridin-2-yl)-5-(3-(4-methylpiperazin-1-yl)propyl)-1,3a,4,5,10,11a-hexahydro-2H-benzo[b]pyrrolo[2,3-f][1,4]diazocine-2,11(3H)-dione]
104 | Cc1cc(C(F)(F)F)cc(N2C(=O)C[C@@H]3CN(c4ccccn4)c4c(F)cccc4N(C)C(=O)[C@H]32)n1 [Example 134, (3aR,11aS)-6-Fluoro-10-methyl-1-(6-methyl-4-(trifluoromethyl)pyridin-2-yl)-5-(pyridin-2-yl)-1,3a,4,5,10,11a-hexahydro-2H-benzo[b]pyrrolo[2,3-f][1,4]diazocine-2,11(3H)-dione]
0.786 | Cc1cc(C(F)(F)F)cc(N2C(=O)C[C@@H]3CN(CCCN4CCOCC4)c4c(Cl)cccc4N(C)C(=O)[C@H]32)n1 [Example 136, (3aR,11aS)-6-Chloro-10-methyl-1-(6-methyl-4-(trifluoromethyl)pyridin-2-yl)-5-(3-morpholinopropyl)-1,3a,4,5,10,11a-hexahydro-2H-benzo[b]pyrrolo[2,3-f][1,4]diazocine-2,11(3H)-dione hydrochloride]
10.1 | Cc1cc(C(F)(F)F)cc(N2C(=O)C[C@@H]3CN(CCCN4CCOCC4)c4c(F)cccc4N(C)C(=O)[C@H]32)n1 [Example 137, (3aR,11aS)-6-Fluoro-10-methyl-1-(6-methyl-4-(trifluoromethyl)pyridin-2-yl)-5-(3-morpholinopropyl)-1,3a,4,5,10,11a-hexahydro-2H-benzo[b]pyrrolo[2,3-f][1,4]diazocine-2,11(3H)-dione]
79.6 | COc1ccnc(N2C[C@H]3CC(=O)N(c4cc(C(F)(F)F)cc(C)n4)[C@@H]3C(=O)N(C)c3cccc(F)c32)c1 [Example 140, (3aR,11aS)-6-Fluoro-5-(4-methoxypyridin-2-yl)-10-methyl-1-(6-methyl-4-(trifluoromethyl)pyridin-2-yl)-1,3a,4,5,10,11a-hexahydro-2H-benzo[b]pyrrolo[2,3-f][1,4]diazocine-2,11(3H)-dione]
28.8 | Cc1cc(C(F)(F)F)cc(N2C(=O)C[C@@H]3CN(c4ccc5ncn(C)c5c4)c4c(F)cccc4N(C)C(=O)[C@H]32)n1 [Example 144, (3aR,11aS)-6-Fluoro-10-methyl-5-(1-methyl-1H-benzo[d]imidazol-6-yl)-1-(6-methyl-4-(trifluoromethyl)pyridin-2-yl)-1,3a,4,5,10,11a-hexahydro-2H-benzo[b]pyrrolo[2,3-f][1,4]diazocine-2,11(3H)-dione]
7.01 | CCN1C(=O)[C@@H]2[C@H](CC(=O)N2c2cc(C(F)(F)F)cc(C)n2)CN(CCN2CCN(C)CC2)c2c(Cl)cccc21 [Example 146, (3aR,11aS)-6-Chloro-10-ethyl-1-(6-methyl-4-(trifluoromethyl)pyridin-2-yl)-5-(2-(4-methylpiperazin-1-yl)ethyl)-1,3a,4,5,10,11a-hexahydro-2H-benzo[b]pyrrolo[2,3-f][1,4]diazocine-2,11(3H)-dione]
